Source: patent US12274264B2, “Piperonylic acid derivative and application thereof” (SHENYANG SINOCHEM AGROCHEMICALS R&D CO., LTD., priority 2019, dated 2025)
Read-outs that look alike come from different tables or passages of the source.

Columns and labels:
Format in all cases: in vivo
[1] = test system: diamondback moth; experiment: Determination of activity against diamondback moth (cabbage leaf disc dip, mortality after 72 hours); conditions: Plutella xylostella, foliar, 10 mg/L, second instar, read-out: mortality rates against diamondback moth
Protocol: (§1) According to the solubility of test compounds, the compounds are dissolved with acetone or dimethyl sulfoxide, and then diluted with 0.1% Tween 80 solution to form a required concentration of 50 ml test liquid. The content of the acetone or the dimethyl sulfoxide in the total solution is not more than 10%.
The leaves of cabbage grown in greenhouse were selected, removed the surface waxy layers, punched into circular leaf discs with a diameter of 2 cm by using a puncher, and dipped into a solution of the required concentration of test compounds for 10 seconds. After dried in shade, the circular leaf discs were placed in a 9 cm diameter petri dish provided with filter paper. Ten regular healthy test insects (second instar) were put into the leaf discs. Four replicates were set for each treatment. The pure water treatment was set as control check. The treated discs were placed in a chamber of 24° C., 60%-70% relative humidity and day light. After 72 hours, the number of surviving insects was investigated, and the mortality rate was calculated.

[2] = test system: western flower thrips nymphs; experiment: Determination of activity against western flower thrips nymphs (sprayed kidney bean leaves, mortality after 72 hours); conditions: for mortality at 600 µg/mL / mortality at 10 µg/mL / mortality at 100 µg/mL: Frankliniella occidentalis; for mortality at 600 µg/mL: 600 mg/L, read-out: mortality rates against western flower thrips nymphs; for mortality at 10 µg/mL / mortality at 100 µg/mL: read-out: Mortality (%) against Western Flower Thrips Nymphs
Protocol: as §1
Fresh kidney bean leaves cultured in the glasshouse were selected and uniformly sprayed with 1 ml of the test liquid by using a handheld Airbrush. The leaves were dried naturally and placed in a test tube. Fifteen tidy and healthy western flower thrips nymphs were put into the leaves. Three replicates were set for each treatment. The water treatment was set as control check. After the treatment, the treated tube were placed in a chamber of 24° C., 60%-70% relative humidity and day light. After 72 hours, the number of surviving insects was investigated, and the mortality was calculated.

[3] = test system: armyworm; experiment: Determination of activity against armyworm (corn leaf dip, mortality after 72 hours); conditions: foliar, 10 mg/L, third instar, read-out: mortality rates against armyworm
Protocol: as §1
The middle leaves of fresh corns were cut into small sections of 3 cm, and dipped into a solution of the required concentration of test compounds for 10 seconds. After dried in shade, the middle leaves were placed in a 9 cm diameter petri dish provided with filter paper. Fourteen regular healthy test insects (third instar) were put into the leaves. Four replicates were set for each treatment. The pure water treatment was set as control check. The treated discs were placed in a chamber of 24° C., 60%-70% relative humidity and day light. After 72 hours, the number of surviving insects was investigated, and the mortality rate was calculated.

[4] = test system: Tribolium confusum adults; experiment: Determination of Tribolium confusum adults (treated feeding bran, 72 h); conditions: for mortality at 600 µg/mL: 600 mg/L, read-out: mortality rates against Tribolium confusum adults; for mortality at 5 µg/mL / mortality at 20 µg/mL: read-out: Mortality (%) against Tribolium Confusum Adults
Protocol: as §1
The test liquid was prepared in the order from low dose to high dose according to the test design. Then, the liquid of different concentrations was added to feeding bran and uniformly stirred, and dried in the shade. Then, the resulting feeding bran was collected in a paper cup. Fifty Tribolium confusum adults with consistent size were put in the paper cup. Three replicates were set for each treatment. Control check was set. The treated test materials were put in an observation room under controlled conditions. After 72 h, the number of dead and surviving adults was investigated.

[5] = test system: Tetranychus cinnabarinus adults; experiment: Determination of acaricidal activity (spray on bean plant leaves with adult spider mites, mortality after 72 hours); conditions: after 72 hours, read-out: Mortality (%) against Tetranychus Cinnabarinus Adult
Protocol: as §1
The adult spider mites were put into two true leaves of bean plants. After the number of mites was investigated, the solution of certain concentrations of test compounds was sprayed by using a handheld Airbrush. Three replicates were set for each treatment. Then the leaves were maintained in a standard observation room. After 72 hours, the number of surviving mites was investigated, and the mortality rate was calculated. Compounds I-41, KC3, KC4 and MC were selected for parallel determination of activity against Tetranychus cinnabarinus adults.

Row | Molecule | mortality at 10 µg/mL [1] | mortality at 600 µg/mL ([2]; after 72 hours) | mortality at 10 µg/mL [3] | mortality at 600 µg/mL ([4]; after 72 h) | mortality at 10 µg/mL ([2]; 10 mg/L, after 72 hours) | mortality at 100 µg/mL ([2]; 100 mg/L, after 72 hours) | further results
1 | CN(C(=O)c1ccc2c(c1)OC(F)(F)O2)c1cccc(C(=O)Nc2c(Br)cc(C(F)(C(F)(F)F)C(F)(F)F)cc2OC(F)(F)F)c1F [Compound I-62, N-(2-bromo-4-heptafluoroisopropyl-6-trifluoromethoxyphenyl)-2-fluoro-3-(N-methyl-2,2-difluoro-1,3-benzodioxole-5-carboxamido) benzamide] | > 90% | > 90% | > 90% | > 90% | – | – | –
2 | O=C(Nc1cccc(C(=O)Nc2c(Cl)cc(C(F)(C(F)(F)F)C(F)(F)F)cc2OC(F)F)c1F)c1ccc2c(c1)OC(F)(F)O2 [Compound I-81] | > 90% | > 90% | > 90% | > 90% | – | – | –
3 | CN(C(=O)c1ccc2c(c1)OC(F)(F)O2)c1cccc(C(=O)Nc2c(Cl)cc(C(F)(C(F)(F)F)C(F)(F)F)cc2OC(F)F)c1F [Compound I-82] | > 90% | > 90% | > 90% | > 90% | – | – | –
4 | O=C(Nc1cccc(C(=O)Nc2c(OC(F)F)cc(C(F)(C(F)(F)F)C(F)(F)F)cc2C(F)(F)F)c1F)c1ccc2c(c1)OC(F)(F)O2 [Compound I-121] | > 90% | > 90% | > 90% | > 90% | – | – | –
5 | CN(C(=O)c1ccc2c(c1)OC(F)(F)O2)c1cccc(C(=O)Nc2c(OC(F)F)cc(C(F)(C(F)(F)F)C(F)(F)F)cc2C(F)(F)F)c1F [Compound I-122] | > 90% | > 90% | > 90% | > 90% | – | – | –
6 | CNC(=O)c1cc(C#N)cc(C)c1NC(=O)c1cc(Br)nn1-c1ncccc1Cl [Cyantraniliprole, reference compound] | – | – | – | – | – | – | mortality at 10 µg/mL ([2]; 72 h): 25%; mortality at 100 µg/mL ([2]; 72 h): 85%; mortality at 5 µg/mL ([4]; 72 h): 0%; mortality at 20 µg/mL ([4]; 72 h): 5%
7 | O=C(Nc1cccc(C(=O)Nc2c(Br)cc(C(F)(C(F)(F)F)C(F)(F)F)cc2Br)c1F)c1ccc2c(c1)OC(F)(F)O2 [KC1, reference compound] | – | – | – | – | 15% | 85% | –
8 | CN(C(=O)c1ccc2c(c1)OC(F)(F)O2)c1cccc(C(=O)Nc2c(Br)cc(C(F)(C(F)(F)F)C(F)(F)F)cc2Br)c1F [KC2, reference compound] | – | – | – | – | 59% | 90% | mortality at 5 µg/mL ([4]; 5 mg/L, after 72 h): 70%; mortality at 20 µg/mL ([4]; 20 mg/L, after 72 h): 76%
9 | CN(C(=O)c1ccccc1)c1cccc(C(=O)Nc2c(Br)cc(C(F)(C(F)(F)F)C(F)(F)F)cc2OC(F)F)c1F [MC] | – | – | – | – | 72% | 76% | mortality at 10 µg/mL ([5]; 10 mg/L): 0%; mortality at 100 µg/mL ([5]; 100 mg/L): 0%; mortality at 600 µg/mL ([5]; 600 mg/L): 0%
10 | Spinetoram [reference compound] | – | – | – | – | – | – | Mortality (%) against Western Flower Thrips Nymphs ([2]; 10 mg/L, after 72 hours): 90%; Mortality (%) against Western Flower Thrips Nymphs ([2]; 100 mg/L, after 72 hours): 100%
